Test results: patent US9878007B2, “Syndecan peptides and polypeptides as inhibitors of vascular endothelial growth factor receptor-2 (VEGFR2) and very late antigen-4 (VLA-4)” (Wisconsin Alumni Research Foundation, priority 2015, dated 2018)

What was measured:
[1] = test system: P3x63Ag8 mouse myeloma cells; test: Invasion of P3x63Ag8 myeloma cells through FN-coated filters; assay type: cell-based; details: 16 hr
Description: (§1) FIG. 7A-B. S1ED^214-236, specific for VEGFR2 coupling to VLA-4, blocks myeloma cell invasion but not adhesion. (FIG. 7A) P3x63Ag8 mouse myeloma cells are plating on the VLA-4 ligand FN in the presence or absence of 30 uM S1ED^210-233 (SEQ ID No: 4) or S1ED^214-236 (SEQ ID No: 7) for 2.5 hr. (FIG. 7B) P3x63Ag8 myeloma cells are plated on FN-coated filters in the presence of HPSE inhibitor OGT2115, VLA-4 blocking antibody P1H4, VEGFR2 inhibitor Vandetanib or S1ED^210-233 or S1ED^214-236 and allowed to migrate through the filter for 16 hr. Small black dots are the pores in the filter.
The bottom chambers of Transwell filter chambers (8 μm pores; Corning) were coated with 40 μg/ml of FN. Cells (5×10^5 in 0.2 ml plating medium) were placed in the upper chamber and incubated for 16 hr at 37° C. in the CO2 incubator. After incubation, cells in the upper chamber were removed and cells on the bottom side of the filter were fixed in 4% paraformaldehyde (PFA) and stained with 0.1% Crystal Violet before imaging. Cells from at least five random fields were counted.

[2] = test system: P3x63Ag8 mouse myeloma cells; test: Adhesion of P3x63Ag8 myeloma cells to FN; assay type: cell-based; details: 30 uM peptide, 2.5 hr
Description: as §1
Nitrocellulose-coated slides were coated for 2 hr at 37° C. with 40 μg/ml FN (kindly provided by Dr. Donna Peters, University of Wisconsin-Madison) or 5 μg/ml recombinant VCAM-1/Fc chimera (R&D Systems) in calcium and magnesium-free PBS (CMF-PBS; 135 mM NaCl, 2.7 mM KCl, 10.2 mM Na2HPO4-7H20 and 1.75 mM KH2PO4, pH7.4). Slides were blocked for 1 hr at 37° C. with RPMI 1640 containing 1% heat-denatured BSA (plating medium). Cells in plating medium were allowed to attach and spread for 2.5 hr at 37° C. Slides were fixed in 4% EM grade paraformaldehyde (Electron Microscopy Sciences) in CMF-PBS and labeled for 30 min in 0.13 μM rhodamine phalloidin (Invitrogen) in CMF-PBS. Coverslips were mounted in non-fluorescing mounting medium (Immumount; Thermo Shandon) and allowed to dry. […]

Row | Compound | invasion / migration of P3X cells through FN-coated filters [1] | adhesion of P3X cells to FN [2]
1 | O=C(O)Cc1ccc2oc(-c3ccc(NC(=O)/C=C/c4ccc(Br)cc4)c(F)c3)nc2c1 [OGT2115, reference compound] | Cell migration is only observed in the untreated controls | –
2 | S1ED^214-236: syndecan-1 ectodomain peptide, residues 214-236 (SEQ ID NO: 7) (ETSGENTAVVAVEPDRRNQSPVD) | blocked by either peptide | without effect
